Measured values from patent US6465395B2, “Substituted methylene pyrazolinones and the herbicidal use thereof” (BASF Aktiengesellschaft, priority 2000, dated 2002).

Legend:
Assay type in all cases: in vivo
[1] = system: IPOSS, Morningglory spp., Ipomoea spp.; assay: Postemergence herbicidal evaluation
Experimental: (§1) The postemergence herbicidal activity of the compounds of the present invention is evaluated by the following tests. Seedling plants are grown in jiffy flats for about two weeks. The test compounds are dispersed in 80/20 (v/v) acetone/water mixtures containing 1.0% SUN-IT®II, a methylated seed oil, in sufficient quantities to provide the equivalent of about 0.006 kg/ha to 0.800 kg/ha of active compound when applied to the plants through a spray nozzle operating at 40 psi for a predetermined time. After spraying, the plants are placed on greenhouse benches and are cared for in accordance with conventional greenhouse procedures. Approximately two to three weeks after treatment, the seedling plants are examined and rated according to the rating system set forth below. Where more than one test is involved for a given compound, the data are averaged.

[2] = system: ECHCG, Barnyardgrass, Echinochloa crus-galli, (L.) Beau; assay: Postemergence herbicidal evaluation
Experimental: as §1

[3] = system: PANDI, Panicum, Fall, Panicum dichotomiflorum, Michx; assay: Postemergence herbicidal evaluation
Experimental: as §1

[4] = system: ABUTH, Velvetleaf, Abutilon theophrasti, Medic.; assay: Postemergence herbicidal evaluation
Experimental: as §1

[5] = system: SETVI, Foxtail, Green, Setaria viridis, (L.) Beau; assay: Postemergence herbicidal evaluation
Experimental: as §1

[6] = system: CHEAL, Lambsquarters, Chenopodium album, L.; assay: Postemergence herbicidal evaluation
Experimental: as §1

[7] = system: ORYSAT, Rice, Tebonnet, Oryza sativa, (L.) Tebonnet; assay: Postemergence herbicidal evaluation; conditions: crop (rice)
Experimental: as §1

[8] = system: ZEAMX, Corn, Field, Zea mays, L.; assay: Postemergence herbicidal evaluation; conditions: crop (corn)
Experimental: as §1

[9] = system: AMBEL, Ragweed, Ambrosia artemisifolia, L.; assay: Postemergence herbicidal evaluation
Experimental: as §1

[10] = system: IPOSS, Morningglory spp., Ipomoea spp.; assay: Preemergence herbicidal evaluation; design: scale not given here
Description: (§2) The preemergence herbicidal activity of the test compounds of the present invention is exemplified by the following tests in which the seeds of a variety of monocotyledonous and dicotyledonous plants are separately mixed with potting soil and planted on top of approximately one inch of soil in separate pint cups. After planting, the cups are sprayed with the selected aqueous acetone solution containing test compound in sufficient quantity to provide the equivalent of about 0.0125 kg/ha to 0.800 kg/ha of test compound per cup. The treated cups are then placed on greenhouse benches, watered and cared for in accordance with conventional greenhouse procedures. Approximately two to four weeks after treatment, the tests are terminated and each cup is examined and rated according to the rating system provided in Example 12. When more than one test is performed for a given compound, the data are averaged.

[11] = system: ECHCG, Barnyardgrass, Echinochloa crus-galli, (L.) Beau; assay: Preemergence herbicidal evaluation; design: scale not given here
Description: as §2

[12] = system: PANDI, Panicum, Fall, Panicum dichotomiflorum, Michx; assay: Preemergence herbicidal evaluation; design: scale not given here
Description: as §2

[13] = system: ABUTH, Velvetleaf, Abutilon theophrasti, Medic.; assay: Preemergence herbicidal evaluation; design: scale not given here
Description: as §2

[14] = system: SETVI, Foxtail, Green, Setaria viridis, (L.) Beau; assay: Preemergence herbicidal evaluation; design: scale not given here
Description: as §2

[15] = system: CHEAL, Lambsquarters, Chenopodium album, L.; assay: Preemergence herbicidal evaluation; design: scale not given here
Description: as §2

[16] = system: GOSHI, Cotton, Gossypium hirsutum, L.; assay: Preemergence herbicidal evaluation; design: scale not given here; conditions: crop (cotton)
Description: as §2

[17] = system: ORYSAT, Rice, Tebonnet, Oryza sativa, (L.) Tebonnet; assay: Preemergence herbicidal evaluation; design: scale not given here; conditions: crop (rice)
Description: as §2

[18] = system: ZEAMX, Corn, Field, Zea mays, L.; assay: Preemergence herbicidal evaluation; design: scale not given here; conditions: crop (corn)
Description: as §2

[19] = system: AMBEL, Ragweed, Ambrosia artemisifolia, L.; assay: Preemergence herbicidal evaluation; design: scale not given here
Description: as §2

[20] = system: GOSHI, Cotton, Gossypium hirsutum, L.; assay: Postemergence herbicidal evaluation; conditions: crop (cotton)
Experimental: as §1

CCCS/C(=C1/C=NN(CC)C1=O)c1ccc2c(c1C)/C(=N/OC)CCS2(=O)=O [Example 8b, 1-Ethyl-4-[(Z)-(5-methyl-4-oxothiochroman-6-yl)(propythio)methylene]-2-pyrazolin-5-one 4′-[(E)-O-methyloxime], S,S-dioxide]
Herbicide rating IPOSS ([1]; 0.0500 kg/ha): 0.0 | Herbicide rating IPOSS ([1]; 0.1000 kg/ha): 0.0 | Herbicide rating IPOSS ([1]; 0.2000 kg/ha): 0.0 | Herbicide rating IPOSS ([1]; 0.4000 kg/ha): 0.0 | Herbicide rating IPOSS ([1]; 0.8000 kg/ha): 0.0 | Herbicide rating ECHCG ([2]; 0.0500 kg/ha): 6.5 | Herbicide rating ECHCG ([2]; 0.1000 kg/ha): 8.0 | Herbicide rating ECHCG ([2]; 0.2000 kg/ha): 8.0 | Herbicide rating ECHCG ([2]; 0.4000 kg/ha): 9.0 | Herbicide rating ECHCG ([2]; 0.8000 kg/ha): 9.0 | Herbicide rating PANDI ([3]; 0.0500 kg/ha): 2.0 | Herbicide rating PANDI ([3]; 0.1000 kg/ha): 6.0 | Herbicide rating PANDI ([3]; 0.2000 kg/ha): 7.0 | Herbicide rating PANDI ([3]; 0.4000 kg/ha): 7.0 | Herbicide rating PANDI ([3]; 0.8000 kg/ha): 6.0 | Herbicide rating ABUTH ([4]; 0.0500 kg/ha): 1.0 | Herbicide rating ABUTH ([4]; 0.1000 kg/ha): 0.0 | Herbicide rating ABUTH ([4]; 0.2000 kg/ha): 5.0 | Herbicide rating ABUTH ([4]; 0.4000 kg/ha): 5.0 | Herbicide rating ABUTH ([4]; 0.8000 kg/ha): 6.0 | Herbicide rating SETVI ([5]; 0.0500 kg/ha): 3.5 | Herbicide rating SETVI ([5]; 0.1000 kg/ha): 3.5 | Herbicide rating SETVI ([5]; 0.2000 kg/ha): 4.0 | Herbicide rating SETVI ([5]; 0.4000 kg/ha): 9.0 | Herbicide rating SETVI ([5]; 0.8000 kg/ha): 9.0 | Herbicide rating CHEAL ([6]; 0.0500 kg/ha): 7.0 | Herbicide rating CHEAL ([6]; 0.1000 kg/ha): 8.0 | Herbicide rating CHEAL ([6]; 0.2000 kg/ha): 8.0 | Herbicide rating CHEAL ([6]; 0.4000 kg/ha): 9.0 | Herbicide rating CHEAL ([6]; 0.8000 kg/ha): 9.0 | Herbicide rating ORYSAT ([7]; 0.0500 kg/ha): 1.0 | Herbicide rating ORYSAT ([7]; 0.1000 kg/ha): 1.7 | Herbicide rating ORYSAT ([7]; 0.2000 kg/ha): 3.5 | Herbicide rating ORYSAT ([7]; 0.4000 kg/ha): 1.5 | Herbicide rating ORYSAT ([7]; 0.8000 kg/ha): 3.5 | Herbicide rating ZEAMX ([8]; 0.0500 kg/ha): 0.0 | Herbicide rating ZEAMX ([8]; 0.1000 kg/ha): 0.0 | Herbicide rating ZEAMX ([8]; 0.2000 kg/ha): 0.0 | Herbicide rating ZEAMX ([8]; 0.4000 kg/ha): 0.0 | Herbicide rating ZEAMX ([8]; 0.8000 kg/ha): 0.0 | Herbicide rating AMBEL ([9]; 0.0500 kg/ha): 0.0 | Herbicide rating AMBEL ([9]; 0.1000 kg/ha): 5.0 | Herbicide rating AMBEL ([9]; 0.2000 kg/ha): 7.0 | Herbicide rating AMBEL ([9]; 0.4000 kg/ha): 7.0 | Herbicide rating AMBEL ([9]; 0.8000 kg/ha): 7.0 | Herbicide rating IPOSS ([10]; 0.2000 kg/ha): 0.0 | Herbicide rating IPOSS ([10]; 0.4000 kg/ha): 0.0 | Herbicide rating IPOSS ([10]; 0.8000 kg/ha): 0.0 | Herbicide rating ECHCG ([11]; 0.2000 kg/ha): 0.0 | Herbicide rating ECHCG ([11]; 0.4000 kg/ha): 0.0 | Herbicide rating ECHCG ([11]; 0.8000 kg/ha): 0.0 | Herbicide rating PANDI ([12]; 0.2000 kg/ha): 2.0 | Herbicide rating PANDI ([12]; 0.4000 kg/ha): 7.0 | Herbicide rating PANDI ([12]; 0.8000 kg/ha): 7.0 | Herbicide rating ABUTH ([13]; 0.2000 kg/ha): 0.0 | Herbicide rating ABUTH ([13]; 0.4000 kg/ha): 0.0 | Herbicide rating ABUTH ([13]; 0.8000 kg/ha): 9.0 | Herbicide rating SETVI ([14]; 0.2000 kg/ha): 3.0 | Herbicide rating SETVI ([14]; 0.4000 kg/ha): 0.0 | Herbicide rating SETVI ([14]; 0.8000 kg/ha): 3.0 | Herbicide rating CHEAL ([15]; 0.2000 kg/ha): 6.0 | Herbicide rating CHEAL ([15]; 0.4000 kg/ha): 7.0 | Herbicide rating CHEAL ([15]; 0.8000 kg/ha): 9.0 | Herbicide rating GOSHI ([16]; 0.2000 kg/ha): 0.0 | Herbicide rating GOSHI ([16]; 0.4000 kg/ha): 0.0 | Herbicide rating GOSHI ([16]; 0.8000 kg/ha): 0.0 | Herbicide rating ORYSAT ([17]; 0.2000 kg/ha): 0.0 | Herbicide rating ORYSAT ([17]; 0.4000 kg/ha): 0.0 | Herbicide rating ORYSAT ([17]; 0.8000 kg/ha): 0.0 | Herbicide rating ZEAMX ([18]; 0.2000 kg/ha): 0.0 | Herbicide rating ZEAMX ([18]; 0.4000 kg/ha): 0.0 | Herbicide rating ZEAMX ([18]; 0.8000 kg/ha): 0.0 | Herbicide rating AMBEL ([19]; 0.2000 kg/ha): 0.0 | Herbicide rating AMBEL ([19]; 0.4000 kg/ha): 3.0 | Herbicide rating AMBEL ([19]; 0.8000 kg/ha): 6.0 | Herbicide rating GOSHI ([20]; 0.0500 kg/ha): 0.0 | Herbicide rating GOSHI ([20]; 0.1000 kg/ha): 0.0 | Herbicide rating GOSHI ([20]; 0.2000 kg/ha): 0.0 | Herbicide rating GOSHI ([20]; 0.4000 kg/ha): 4.0 | Herbicide rating GOSHI ([20]; 0.8000 kg/ha): 4.5

4-Methoximino-5-methyl-6-(1-ethyl-5-hydroxypyrazol-4-yl)thiocarbonylthiochroman-1,1-dioxide, zinc (+2) chelate [Example 6]
Herbicide rating IPOSS ([10]; 0.0500 kg/ha): 1.0 | Herbicide rating IPOSS ([10]; 0.1000 kg/ha): 3.0 | Herbicide rating IPOSS ([10]; 0.2000 kg/ha): 6.0 | Herbicide rating IPOSS ([10]; 0.4000 kg/ha): 5.0 | Herbicide rating IPOSS ([10]; 0.8000 kg/ha): 5.0 | Herbicide rating ECHCG ([11]; 0.0500 kg/ha): 3.0 | Herbicide rating ECHCG ([11]; 0.1000 kg/ha): 9.0 | Herbicide rating ECHCG ([11]; 0.2000 kg/ha): 9.0 | Herbicide rating ECHCG ([11]; 0.4000 kg/ha): 9.0 | Herbicide rating ECHCG ([11]; 0.8000 kg/ha): 8.0 | Herbicide rating PANDI ([12]; 0.0500 kg/ha): 6.0 | Herbicide rating PANDI ([12]; 0.1000 kg/ha): 9.0 | Herbicide rating PANDI ([12]; 0.2000 kg/ha): 9.0 | Herbicide rating PANDI ([12]; 0.4000 kg/ha): 8.0 | Herbicide rating PANDI ([12]; 0.8000 kg/ha): 8.0 | Herbicide rating ABUTH ([13]; 0.0500 kg/ha): 9.0 | Herbicide rating ABUTH ([13]; 0.1000 kg/ha): 9.0 | Herbicide rating ABUTH ([13]; 0.2000 kg/ha): 9.0 | Herbicide rating ABUTH ([13]; 0.4000 kg/ha): 9.0 | Herbicide rating ABUTH ([13]; 0.8000 kg/ha): 9.0 | Herbicide rating SETVI ([14]; 0.0500 kg/ha): 4.0 | Herbicide rating SETVI ([14]; 0.1000 kg/ha): 7.0 | Herbicide rating SETVI ([14]; 0.2000 kg/ha): 9.0 | Herbicide rating SETVI ([14]; 0.4000 kg/ha): 9.0 | Herbicide rating SETVI ([14]; 0.8000 kg/ha): 9.0 | Herbicide rating CHEAL ([15]; 0.0500 kg/ha): 9.0 | Herbicide rating CHEAL ([15]; 0.1000 kg/ha): 9.0 | Herbicide rating CHEAL ([15]; 0.2000 kg/ha): 9.0 | Herbicide rating CHEAL ([15]; 0.4000 kg/ha): 9.0 | Herbicide rating CHEAL ([15]; 0.8000 kg/ha): 9.0 | Herbicide rating GOSHI ([16]; 0.0500 kg/ha): 0.0 | Herbicide rating GOSHI ([16]; 0.1000 kg/ha): 1.0 | Herbicide rating GOSHI ([16]; 0.2000 kg/ha): 6.0 | Herbicide rating GOSHI ([16]; 0.4000 kg/ha): 8.0 | Herbicide rating GOSHI ([16]; 0.8000 kg/ha): 7.0 | Herbicide rating ORYSAT ([17]; 0.0500 kg/ha): 4.0 | Herbicide rating ORYSAT ([17]; 0.1000 kg/ha): 7.0 | Herbicide rating ORYSAT ([17]; 0.2000 kg/ha): 9.0 | Herbicide rating ORYSAT ([17]; 0.4000 kg/ha): 9.0 | Herbicide rating ORYSAT ([17]; 0.8000 kg/ha): 9.0 | Herbicide rating ZEAMX ([18]; 0.0500 kg/ha): 0.0 | Herbicide rating ZEAMX ([18]; 0.1000 kg/ha): 0.0 | Herbicide rating ZEAMX ([18]; 0.2000 kg/ha): 0.0 | Herbicide rating ZEAMX ([18]; 0.4000 kg/ha): 1.0 | Herbicide rating ZEAMX ([18]; 0.8000 kg/ha): 0.0 | Herbicide rating AMBEL ([19]; 0.0500 kg/ha): 7.0 | Herbicide rating AMBEL ([19]; 0.1000 kg/ha): 8.0 | Herbicide rating AMBEL ([19]; 0.2000 kg/ha): 9.0 | Herbicide rating AMBEL ([19]; 0.4000 kg/ha): 9.0 | Herbicide rating AMBEL ([19]; 0.8000 kg/ha): 9.0
